We go through 38 molecules from patent US11642348B2, “Substituted benzene compounds” (Epizyme, Inc., priority 2012, dated 2023).

Structures are written as SMILES. Like-named read-outs stand apart in the source and are kept apart here. Some results are limits rather than exact numbers.

Test [1] has as its target wild-type EZH2 (PRC2 complex) (Homo sapiens (Human), UniProt Q15910). The test is described as follows: PRC2 enzyme assay on peptide substrates (wild-type EZH2).
Test [2] concerns H3K27me3 in WSU-DLCL2 cells. As to the kind of experiment: WSU-DLCL2 methylation assay (H3K27me3 ELISA). The format is cell-based. As to conditions: Homo sapiens, 96 hours.
Excerpt: WSU-DLCL2 suspension cells were purchased from DSMZ (German Collection of Microorganisms and Cell Cultures, Braunschweig, Germany). RPMI/Glutamax Medium, Penicillin-Streptomycin, Heat Inactivated Fetal Bovine Serum, and D-PBS were purchased from Life Technologies, Grand Island, N.Y., USA. Extraction Buffer and Neutralization Buffer (5×) were purchased from Active Motif, Carlsbad, Calif., USA. Rabbit anti-Histone H3 antibody was purchased from Abcam, Cambridge, Mass., USA. Rabbit anti-H3K27me3 and HRP-conjugated anti-rabbit-IgG were purchased from Cell Signaling Technology, Danvers, Mass., USA. TMB “Super Sensitive” substrate was sourced from BioFX Laboratories, Owings Mills, Md., USA. IgG-free Bovine Serum Albumin was purchased from Jackson ImmunoResearch, West Grove, Pa., USA. PBS with Tween (10×PBST) was purchased from KPL, Gaithersburg, Md., USA. Sulfuric Acid was purchased from Ricca Chemical, Arlington, Tex., USA. Immulon ELISA plates were purchased from Thermo, Rochester, N.Y., USA. V-bottom cell culture plates were purchased from Corning Inc., Corning, N.Y., USA. V-bottom polypropylene plates were purchased from Greiner Bio-One, Monroe, N.C., USA.
WSU-DLCL2 cells were seeded in assay medium at a concentration of 50,000 cells per mL to a 96-well V-bottom cell culture plate with 200 μL per well. […] Plates were incubated on a titer-plate shaker at 37° C., 5% CO2 for 96 hours. After four days of incubation, plates were spun at 241×g for five minutes and medium was aspirated gently from each well of cell plate without disturbing cell pellet. Pellet was resuspended in 200 μL DPBS and plates were spun again at 241×g for five minutes. The supernatant was aspirated and cold (4° C.) Extraction buffer (100 μL) was added per well. Plates were incubated at 4° C. on orbital shaker for two hours. […] Supernatant (80 μL per well) was transferred to its respective well in 96 well V-bottom polypropylene plate. Neutralization Buffer 5× (20 μL per well) was added to V-bottom polypropylene plate containing supernatant. V-bottom polypropylene plates containing crude histone preparation (CHP) were incubated on orbital shaker×five minutes. Crude Histone Preparations were added (2 μL per well) to each respective well into duplicate 96 well ELISA plates containing 100 μL Coating Buffer (1×PBS+BSA 0.05% w/v). Plates were sealed and incubated overnight at 4° C. The following day, plates were washed three times with 300 μL per well 1×PBST. […] For H3K27me3 detection, 100 μL of HRP conjugated anti-rabbit IgG antibody diluted to 1:4000 in ELISA diluent was added per well. Plates were incubated at room temperature for 90 minutes. […] TMB substrate 100 μL was added per well. Histone H3 plates were incubated for five minutes at room temperature. H3K27me3 plates were incubated for 10 minutes at room temperature. The reaction was stopped with sulfuric acid 1N (100 μL per well). Absorbance for each plate was read at 450 nm.
Each plate included eight control wells of DMSO only treatment (Minimum Inhibition) as well as eight control wells for maximum inhibition (Background wells).
The average of the ratio values for each control type was calculated and used to determine the percent inhibition for each test well in the plate. […] Percent inhibition was determined and IC50 curves were generated using duplicate wells per concentration of compound.
The test system of a further test is WSU-DLCL2 cells. As to the kind of experiment: Cell proliferation analysis (WSU-DLCL2, Cell Titer Glo). The format is cell-based. As to conditions: Homo sapiens, 6 days.
Setting [3] is: WSUDLCL2, Table 3A, read-out: H3K27Me3 ELISA IC50.
[4] abbreviates: WSUDLCL2, Table 3B, read-out: ELISA H3K27me3 IC50.
[5] abbreviates: WSUDLCL2, Table 3B, read-out: WSU proliferation IC50.

Chain of wild-type EZH2 (PRC2 complex) (Q15910 other isoform, or with tags, fused parts or gaps): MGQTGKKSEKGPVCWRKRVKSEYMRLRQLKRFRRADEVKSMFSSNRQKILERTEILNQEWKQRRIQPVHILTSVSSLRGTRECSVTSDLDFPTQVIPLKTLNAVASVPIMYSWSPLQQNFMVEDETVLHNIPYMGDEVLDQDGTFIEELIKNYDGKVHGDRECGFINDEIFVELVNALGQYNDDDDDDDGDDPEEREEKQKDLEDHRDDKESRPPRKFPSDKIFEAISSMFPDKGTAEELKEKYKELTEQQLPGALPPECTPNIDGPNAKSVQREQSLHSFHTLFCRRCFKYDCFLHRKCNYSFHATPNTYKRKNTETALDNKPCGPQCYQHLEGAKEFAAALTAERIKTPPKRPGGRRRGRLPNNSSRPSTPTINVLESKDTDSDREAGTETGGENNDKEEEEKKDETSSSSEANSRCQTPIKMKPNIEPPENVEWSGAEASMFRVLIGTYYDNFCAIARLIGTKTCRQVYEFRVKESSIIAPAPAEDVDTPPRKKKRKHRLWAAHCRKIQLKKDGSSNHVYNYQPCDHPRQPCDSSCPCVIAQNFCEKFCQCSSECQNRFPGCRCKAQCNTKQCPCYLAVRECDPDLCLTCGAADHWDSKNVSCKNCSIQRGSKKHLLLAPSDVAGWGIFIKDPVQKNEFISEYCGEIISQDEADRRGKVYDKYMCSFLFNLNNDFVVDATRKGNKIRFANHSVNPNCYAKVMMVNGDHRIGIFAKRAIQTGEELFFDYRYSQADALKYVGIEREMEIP
Chain of wild-type EZH2 (PRC2 complex) (O75530 whole entry partner): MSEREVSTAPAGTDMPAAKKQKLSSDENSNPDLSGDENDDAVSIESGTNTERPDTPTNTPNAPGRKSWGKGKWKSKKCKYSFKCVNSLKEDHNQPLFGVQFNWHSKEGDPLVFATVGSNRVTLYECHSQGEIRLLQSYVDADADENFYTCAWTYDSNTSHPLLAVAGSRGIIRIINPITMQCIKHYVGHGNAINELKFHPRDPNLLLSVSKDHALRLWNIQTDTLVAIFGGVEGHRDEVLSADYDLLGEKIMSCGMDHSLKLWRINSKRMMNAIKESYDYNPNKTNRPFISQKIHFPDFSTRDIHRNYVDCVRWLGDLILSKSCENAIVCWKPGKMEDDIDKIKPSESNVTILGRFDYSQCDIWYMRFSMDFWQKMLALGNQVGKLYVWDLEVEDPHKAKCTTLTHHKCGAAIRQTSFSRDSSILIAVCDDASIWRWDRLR
Chain of wild-type EZH2 (PRC2 complex) (Q15022 whole entry partner): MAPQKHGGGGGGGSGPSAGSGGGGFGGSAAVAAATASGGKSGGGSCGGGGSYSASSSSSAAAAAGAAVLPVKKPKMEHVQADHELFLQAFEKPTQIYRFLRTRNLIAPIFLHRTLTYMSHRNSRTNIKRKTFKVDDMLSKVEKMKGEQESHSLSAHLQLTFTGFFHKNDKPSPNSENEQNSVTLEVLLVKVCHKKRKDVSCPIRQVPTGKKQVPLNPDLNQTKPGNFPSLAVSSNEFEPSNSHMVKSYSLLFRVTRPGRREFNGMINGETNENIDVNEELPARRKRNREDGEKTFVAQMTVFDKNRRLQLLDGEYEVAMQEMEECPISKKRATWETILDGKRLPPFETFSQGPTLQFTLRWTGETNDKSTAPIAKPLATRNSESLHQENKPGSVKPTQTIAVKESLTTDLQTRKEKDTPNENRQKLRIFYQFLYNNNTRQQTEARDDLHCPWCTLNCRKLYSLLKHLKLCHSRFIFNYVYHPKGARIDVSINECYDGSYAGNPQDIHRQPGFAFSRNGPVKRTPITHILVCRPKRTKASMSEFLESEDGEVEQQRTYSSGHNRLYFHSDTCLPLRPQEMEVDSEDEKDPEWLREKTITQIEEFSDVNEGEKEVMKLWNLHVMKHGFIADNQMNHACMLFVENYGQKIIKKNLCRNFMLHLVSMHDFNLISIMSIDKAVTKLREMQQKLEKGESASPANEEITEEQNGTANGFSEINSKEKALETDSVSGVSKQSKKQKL
Chain of wild-type EZH2 (PRC2 complex) (Q09028 whole entry partner): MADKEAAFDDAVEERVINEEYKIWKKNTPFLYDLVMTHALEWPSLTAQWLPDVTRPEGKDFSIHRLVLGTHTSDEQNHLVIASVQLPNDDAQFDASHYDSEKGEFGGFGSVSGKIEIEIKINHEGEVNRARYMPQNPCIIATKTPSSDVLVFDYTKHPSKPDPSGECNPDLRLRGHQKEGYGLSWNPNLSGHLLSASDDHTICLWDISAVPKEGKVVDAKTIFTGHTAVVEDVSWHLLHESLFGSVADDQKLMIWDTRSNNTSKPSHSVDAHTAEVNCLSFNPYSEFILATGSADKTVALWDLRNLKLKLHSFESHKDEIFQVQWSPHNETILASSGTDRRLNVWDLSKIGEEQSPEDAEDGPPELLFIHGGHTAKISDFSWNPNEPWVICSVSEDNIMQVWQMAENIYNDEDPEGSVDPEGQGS

Take `CCN(c1cc(-c2ccc(OCCOC)nc2)cc(C(=O)NCc2c(C)cc(C)[nH]c2=O)c1C)[C@H]1CC[C@H](N(C)C)CC1` [Compound 5, N-((4,6-dimethyl-2-oxo-1,2-dihydropyridin-3-yl)methyl)-3-(((trans)-4-(dimethylamino)cyclohexyl)(ethyl)amino)-5-(6-(2-methoxyethoxy)pyridin-3-yl)-2-methylbenzamide]: the IC50 in test [1] is 13.1 nM.

In the case of `CCN(c1cc(-c2ccc(OCCOCCOC)cc2)cc(C(=O)NCc2c(C)cc(C)[nH]c2=O)c1C)[C@H]1CC[C@H](N(C)C)CC1` [Compound 6, N-((4,6-dimethyl-2-oxo-1,2-dihydropyridin-3-yl)methyl)-5-(((trans)-4-(dimethylamino)cyclohexyl)(ethyl)amino)-4′-(2-(2-methoxyethoxy)ethoxy)-4-methyl-[1,1′-biphenyl]-3-carboxamide], the IC50 stood at 57.5 nM in test [2] (setting [3]) and 15.4 nM in test [1].

For `CCN(c1cc(-c2ccc(OCCOC)cc2)cc(C(=O)NCc2c(OC)cc(C)[nH]c2=O)c1C)[C@H]1CC[C@H](N(C)C)CC1` [Compound 6b, 5-(((trans)-4-(dimethylamino)cyclohexyl)(ethyl)amino)-N-((4-methoxy-6-methyl-2-oxo-1,2-dihydropyridin-3-yl)methyl)-4′-(2-methoxyethoxy)-4-methyl-[1,1′-biphenyl]-3-carboxamide], the results for the IC50 in test [2] (setting [3]) and in test [1] were 33.9 nM and less than 5 nM, respectively.

Turning to `CCN(c1cc(OC)cc(C(=O)NCc2c(C)cc(C)[nH]c2=O)c1C)[C@H]1CC[C@H](N(C)CCOC)CC1` [Compound 11, N-((4,6-dimethyl-2-oxo-1,2-dihydropyridin-3-yl)methyl)-3-(ethyl((trans)-4-((2-methoxyethyl)(methyl)amino)cyclohexyl)amino)-5-methoxy-2-methylbenzamide], the figures for the IC50 in test [2] (setting [3]) and in test [1] were 673 nM and 6.27 nM, respectively.

For `CCN(c1cc(OCCOC)cc(C(=O)NCc2c(C)cc(C)[nH]c2=O)c1C)[C@H]1CC[C@H](N(C)CCOC)CC1` [Compound 12, N-((4,6-dimethyl-2-oxo-1,2-dihydropyridin-3-yl)methyl)-3-(ethyl((trans)-4-((2-methoxyethyl)(methyl)amino)cyclohexyl)amino)-5-(2-methoxyethoxy)-2-methylbenzamide], the IC50 in test [2] (setting [3]) is 308 nM; in test [1], 29 nM.

As for `CCN(c1cc(OCCN2CCOCC2)cc(C(=O)NCc2c(C)cc(C)[nH]c2=O)c1C)[C@H]1CC[C@H](N(C)CCOC)CC1` [Compound 13, N-((4,6-dimethyl-2-oxo-1,2-dihydropyridin-3-yl)methyl)-3-(ethyl((trans)-4-((2-methoxyethyl)(methyl)amino)cyclohexyl)amino)-2-methyl-5-(2-morpholinoethoxy)benzamide], the IC50 in test [2] (setting [3]) was more than 50000 nM.

`CCN(c1cc(OCCCN2CCOCC2)cc(C(=O)NCc2c(C)cc(C)[nH]c2=O)c1C)[C@H]1CC[C@H](N(C)CCOC)CC1` [Compound 14, N-((4,6-dimethyl-2-oxo-1,2-dihydropyridin-3-yl)methyl)-3-(ethyl((trans)-4-((2-methoxyethyl)(methyl)amino)cyclohexyl)amino)-2-methyl-5-(3-morpholinopropoxy)benzamide]: the IC50 in test [2] (setting [3]) came to 17100 nM.

Turning to `CCN(c1cc(-c2cnc(C)cn2)cc(C(=O)NCc2c(C)cc(C)[nH]c2=O)c1C)[C@H]1CC[C@H](N(C)CCOC)CC1` [Compound 18], the IC50 is 553 nM in test [2] (setting [3]) and 8.59 nM in test [1].

`CCN(c1cc(-c2cnc(C)nc2)cc(C(=O)NCc2c(C)cc(C)[nH]c2=O)c1C)[C@H]1CC[C@H](N(C)CCOC)CC1` [Compound 19] yielded an IC50 in test [1] of 9.81 nM.

In test [1], `CCN(c1cc(-c2cnc(OC)nc2)cc(C(=O)NCc2c(C)cc(C)[nH]c2=O)c1C)[C@H]1CC[C@H](N(C)CCOC)CC1` [Compound 20] yielded an IC50 of less than 5 nM.

With `CCN(c1cc(-c2cnccn2)cc(C(=O)NCc2c(C)cc(C)[nH]c2=O)c1C)[C@H]1CC[C@H](N(C)CCOC)CC1` [Compound 22], the IC50 in test [2] (setting [3]) was 1040 nM; in test [1], 28.3 nM.

On to `CCN(c1cc(-c2cnn(C)c2)cc(C(=O)NCc2c(C)cc(C)[nH]c2=O)c1C)[C@H]1CC[C@H](N(C)CCOC)CC1` [Compound 23], for which the results for the IC50 in test [2] (setting [3]) and in test [1] were 401 nM and less than 5 nM, respectively.

With `CCN(c1cc(-c2ccc(CN3CCOCC3)cc2)cc(C(=O)NCc2c(C)cc(C)[nH]c2=O)c1C)[C@H]1CC[C@H](N(C)CCOC)CC1` [Compound 26], the IC50 in test [2] (setting [3]) was determined as 87 nM; in the test on WSU-DLCL2 cells (WSUDLCL2, Table 3A, read-out: WSU Prolif. IC50), 138 nM.

In the case of `CCN(c1cc(C#CC2CCN(C)CC2)cc(C(=O)NCc2c(C)cc(C)[nH]c2=O)c1C)C1CCOCC1` [Compound 105, N-((4,6-dimethyl-2-oxo-1,2-dihydropyridin-3-yl)methyl)-3-(ethyl(tetrahydro-2H-pyran-4-yl)amino)-2-methyl-5-((1-methylpiperidin-4-yl)ethynyl)benzamide], the IC50 in test [2] (setting [3]) was determined as 150 nM.

For the molecule `CCN(c1cc(C#CCN2CCOCC2)cc(C(=O)NCc2c(C)cc(C)[nH]c2=O)c1C)C1CCC(N(C)C)CC1` (centres unmarked) [Compound 111], the IC50 stood at 14 nM in test [2] (setting [4]) and 201 nM in the test on WSU-DLCL2 cells (setting [5]).

In the case of `CCN(c1cc(C#CCN2CCOCC2)cc(C(=O)NCc2c(C)cc(C)[nH]c2=O)c1C)[C@H]1CC[C@H](N(C)C)CC1` [Compound 111], the IC50 in test [1] was less than 5 nM.

Turning to `CCN(c1cc(C#CCN2CCCN(C)CC2)cc(C(=O)NCc2c(C)cc(C)[nH]c2=O)c1C)C1CCC(N(C)C)CC1` (centres unmarked) [Compound 112], the figures for the IC50 (in test [2] (setting [4]); in the test on WSU-DLCL2 cells (setting [5])) were 179 nM and 798 nM, respectively.

Regarding `CCN(c1cc(-c2ccc(N3CCN(C)CC3)nc2)cc(C(=O)NCc2c(C)cc(C)[nH]c2=O)c1C)C1C[C@@H](C)N[C@H](C)C1` (some centres unmarked) [Compound 124], the figures for the IC50 (in test [2] (setting [4]); in the test with WSU-DLCL2 cells (setting [5])) were 166 nM and 158 nM, respectively.

Take `CCN(c1cc(-c2ccc(N3CCN(C)CC3)nc2)cc(C(=O)NCc2c(C)cc(C)[nH]c2=O)c1C)C1CCN(C)CC1` [Compound 125]: the IC50 in test [2] (setting [4]) came to 291 nM; in the test with WSU-DLCL2 cells (setting [5]), 155 nM.

Consider `CCN(c1cc(-c2ccc(COC)nc2)cc(C(=O)NCc2c(C(C)C)cc(C)[nH]c2=O)c1C)C1CCOCC1` [Compound 129], for which the IC50 was found to be 354 nM in test [2] (setting [4]) and 254 nM in the test with WSU-DLCL2 cells (setting [5]).

In the case of `CCN(c1cc(-c2ccc(OC)nc2)cc(C(=O)NCc2c(C)cc(C)[nH]c2=O)c1C)C1CCOCC1` [Compound 130], the IC50 (in test [2] (setting [4]); in the test on WSU-DLCL2 cells (setting [5])) was 218 nM throughout.

`CCN(c1cc(-c2ccc(OC3CCN(C)CC3)nc2)cc(C(=O)NCc2c(C)cc(C)[nH]c2=O)c1C)C1CCOCC1` [Compound 133]: the IC50 with WSU-DLCL2 cells (setting [5]) came out at 503 nM.

As for `CCN(c1cc(-c2ccc(CN3CCCN(C)CC3)nc2)cc(C(=O)NCc2c(C)cc(C)[nH]c2=O)c1C)C1CCOCC1` [Compound 135], the results for the IC50 (in test [2] (setting [4]); with WSU-DLCL2 cells (setting [5])) were 192 nM and 176 nM, respectively.

Consider `CCN(c1cc(-c2ccc(CN3CCCN(C)CC3)nc2)cc(C(=O)NCc2c(C(C)C)cc(C)[nH]c2=O)c1C)C1CCOCC1` [Compound 136], for which the values for the IC50 (in test [2] (setting [4]); in the test on WSU-DLCL2 cells (setting [5])) were 259 nM and 566 nM, respectively.

For `CCN(c1cc(-c2ccc(N3CCCN(C)CC3)nc2)cc(C(=O)NCc2c(C)cc(C)[nH]c2=O)c1C)C1CCOCC1` [Compound 137], the IC50 in test [2] (setting [4]) was 56 nM; in the test with WSU-DLCL2 cells (setting [5]) it was 505 nM.

For the molecule `CCN(c1cc(-c2ccc(CN3CCCC3)nc2)cc(C(=O)NCc2c(C)cc(C)[nH]c2=O)c1C)C1CCOCC1` [Compound 138], the IC50 in test [2] (setting [4]) stood at 288 nM; with WSU-DLCL2 cells (setting [5]), 178 nM.

As to `CCN(c1cc(-c2ccc(CN3CCCCC3)nc2)cc(C(=O)NCc2c(C)cc(C)[nH]c2=O)c1C)C1CCOCC1` [Compound 139], the IC50 in test [2] (setting [4]) was determined as 95.8 nM; in the test with WSU-DLCL2 cells (setting [5]) it was 24.9 nM.

On to `CCN(c1cc(-c2ccc(CN3CCC(O)CC3)nc2)cc(C(=O)NCc2c(C(C)C)cc(C)[nH]c2=O)c1C)C1CCOCC1` [Compound 140], for which the IC50 with WSU-DLCL2 cells (setting [5]) was found to be 716 nM.

Take `CCN(c1cc(-c2ccc(CN3CCC[C@H](O)C3)nc2)cc(C(=O)NCc2c(C(C)C)cc(C)[nH]c2=O)c1C)C1CCOCC1` [Compound 141]: the IC50 was determined as 349 nM in test [2] (setting [4]) and 123 nM in the test on WSU-DLCL2 cells (setting [5]).

With `CCN(c1cc(-c2ccc(CN3CCOCC3)nc2)cc(C(=O)NCc2c(C(F)(F)F)cc(C)[nH]c2=O)c1C)C1CCOCC1` [Compound 142], the IC50 was 699 nM in test [2] (setting [4]) and 2000 nM with WSU-DLCL2 cells (setting [5]).

As to `CCN(c1cc(-c2ccc(N3CCC(O)CC3)nc2)cc(C(=O)NCc2c(C)cc(C)[nH]c2=O)c1C)[C@H]1CC[C@H](N(C)C)CC1` [Compound 143], the IC50 turned out to be 18 nM in test [2] (setting [4]) and 276 nM with WSU-DLCL2 cells (setting [5]).

Take `CCN(c1cc(-c2ccc(N3CC(O)C3)nc2)cc(C(=O)NCc2c(C)cc(C)[nH]c2=O)c1C)[C@H]1CC[C@H](N(C)C)CC1` [Compound 144]: the figures for the IC50 (in test [2] (setting [4]); with WSU-DLCL2 cells (setting [5])) were 92 nM and 1540 nM, respectively.

As to `CCN(c1cc(-c2ccc(CN3CCOCC3)nc2)cc(C(=O)NCc2c(C)cc(C)[nH]c2=O)c1C)[C@H]1CC[C@H](N(C)C)CC1` [Compound 145], the IC50 in test [2] (setting [4]) is 84.2 nM; with WSU-DLCL2 cells (setting [5]) it was 185 nM.

For `CCN(c1cc(-c2ccc(CN3CCC(O)CC3)c(F)c2)cc(C(=O)NCc2c(C)cc(C)[nH]c2=O)c1C)C1CCOCC1` [Compound 153], the IC50 in the test with WSU-DLCL2 cells (setting [5]) is 476 nM.

As for `CCN(c1cc(-c2ccc(CN3CC(O)C3)c(F)c2)cc(C(=O)NCc2c(C)cc(C)[nH]c2=O)c1C)C1CCOCC1` [Compound 154], the IC50 in test [2] (setting [4]) amounted to 529 nM; in the test on WSU-DLCL2 cells (setting [5]), 394 nM.

Regarding `CCN(c1cc(C#CC2CCN(C3CC3)CC2)cc(C(=O)NCc2c(C)cc(C)[nH]c2=O)c1C)C1CCOCC1` [Compound 157], the results for the IC50 in test [2] (setting [3]) and in test [1] were 140 nM and less than 5 nM, respectively.

In the case of `CCN(c1cc(C#CC2CCN(C3CCC3)CC2)cc(C(=O)NCc2c(C)cc(C)[nH]c2=O)c1C)C1CCOCC1` [Compound 158], the IC50 is 215 nM in test [2] (setting [3]) and less than 5 nM in test [1].

`CCN(c1cc(C#CC2CCN(C3CN(C)C3)CC2)cc(C(=O)NCc2c(C)cc(C)[nH]c2=O)c1C)C1CCOCC1` [Compound 162] registered an IC50 in test [1] of 12 nM.
